Data set [1] has as its system SH-SY5Y. As to the kind of experiment: Induction of neurite outgrowth in human SH-SY5Y cells assessed as increase in neurite length of more than 50 micrometer by measuring cell differentiation at 1 uM incubated for 6 days by Giemsa staining based phase contrast microscopic analysis relative to control. Format: functional.
The target in data set [2] is WD repeat and HMG-box DNA-binding protein 1 (Homo sapiens) (UniProt O75717). The conditions noted are these: A549, Lysate.
Description: Binding affinity to WDHD1 in human A549 cells lysates grown on SILAC media at 10 uM incubated for 1 hr by LC-MS/MS analysis relative to untreated control
Data set [3] deals with Aldo-keto reductase family 1 member C2 (Homo sapiens) (UniProt P52895). The conditions noted are these: A549, Lysate.
Description: Binding affinity to AKR1C2 in human A549 cells lysates grown on SILAC media at 10 uM incubated for 1 hr by LC-MS/MS analysis relative to untreated control
For data set [4], the target named is Serine/threonine-protein kinase greatwall (Homo sapiens) (UniProt Q96GX5). The conditions noted are these: A549, Lysate.
Description: Binding affinity to MASTL in human A549 cells lysates grown on SILAC media at 10 uM incubated for 1 hr by LC-MS/MS analysis relative to untreated control
In data set [5] the target is Heat shock protein beta-1 (Homo sapiens) (UniProt P04792). Particulars: A549, Lysate; call rule not given here.
Data set [6] deals with Glutamate--cysteine ligase regulatory subunit (Homo sapiens) (UniProt P48507). Particulars: A549, Lysate.
Description: Binding affinity to GCLM in human A549 cells lysates grown on SILAC media at 10 uM incubated for 1 hr by LC-MS/MS analysis relative to untreated control
The target in data set [7] is Cytochrome b5 type B (Homo sapiens) (UniProt O43169). The conditions noted are these: A549, Lysate.
Description: Binding affinity to CYB5B in human A549 cells lysates grown on SILAC media at 10 uM incubated for 1 hr by LC-MS/MS analysis relative to untreated control
Data set [8] concerns the target Polyubiquitin-B (Homo sapiens) (UniProt P0CG47). Particulars: A549, Lysate, pooled result: one value given for 5 cell lines, strains, targets or settings.
Description: Binding affinity to UBB in human A549 cells lysates grown on SILAC media at 10 uM incubated for 1 hr by LC-MS/MS analysis relative to untreated control
Data set [9] addresses Heterogeneous nuclear ribonucleoprotein F (Homo sapiens) (UniProt P52597). The conditions noted are these: A549, Lysate.
Description: Binding affinity to HNRNPF in human A549 cells lysates grown on SILAC media at 10 uM incubated for 1 hr by LC-MS/MS analysis relative to untreated control
Data set [10] concerns the target Sarcoplasmic/endoplasmic reticulum calcium ATPase 2 (Homo sapiens) (UniProt P16615). Particulars: A549, Lysate.
Description: Binding affinity to ATP2A2 in human A549 cells lysates grown on SILAC media at 10 uM incubated for 1 hr by LC-MS/MS analysis relative to untreated control
The target of data set [11] is Keratin, type II cuticular Hb1 (Homo sapiens) (UniProt Q14533). Particulars: A549, Lysate, pooled result: one value given for 5 cell lines, strains, targets or settings.
Description: Binding affinity to KRT81 in human A549 cells lysates grown on SILAC media at 10 uM incubated for 1 hr by LC-MS/MS analysis relative to untreated control
The target of data set [12] is Glutathione S-transferase 3, mitochondrial (Homo sapiens) (UniProt O14880). Particulars: A549, Lysate.
Description: Binding affinity to MGST3 in human A549 cells lysates grown on SILAC media at 10 uM incubated for 1 hr by LC-MS/MS analysis relative to untreated control
Data set [13] has as its target MKI67 FHA domain-interacting nucleolar phosphoprotein (Homo sapiens) (UniProt Q9BYG3). Particulars: A549, Lysate.
Description: Binding affinity to MKI67 in human A549 cells lysates grown on SILAC media at 10 uM incubated for 1 hr by LC-MS/MS analysis relative to untreated control
Data set [14] has as its target Non-selective voltage-gated ion channel VDAC3 (Homo sapiens) (UniProt Q9Y277). Particulars: A549, Lysate.
Description: Binding affinity to VDAC3 in human A549 cells lysates grown on SILAC media at 10 uM incubated for 1 hr by LC-MS/MS analysis relative to untreated control
The target in data set [15] is Transcription intermediary factor 1-beta (Homo sapiens) (UniProt Q13263). Particulars: A549, Lysate.
Description: Binding affinity to TRIM28 in human A549 cells lysates grown on SILAC media at 10 uM incubated for 1 hr by LC-MS/MS analysis relative to untreated control
Data set [16] deals with Mitochondrial carrier homolog 2 (Homo sapiens) (UniProt Q9Y6C9). Particulars: A549, Lysate.
Description: Binding affinity to MTCH2 in human A549 cells lysates grown on SILAC media at 10 uM incubated for 1 hr by LC-MS/MS analysis relative to untreated control
For data set [17], the system named is SH-SY5Y. Briefly: Induction of neurite outgrowth in human SH-SY5Y cells assessed as increase in neurite length of more than 50 micrometer by measuring cell differentiation at 1 uM in presence of dexamethasone incubated for 6 days by Giemsa staining based phase contrast microscopic analysis relative to control. Format: functional.
Data set [18] deals with Non-selective voltage-gated ion channel VDAC2 (Homo sapiens) (UniProt P45880). Particulars: A549, Lysate.
Description: Binding affinity to VDAC2 in human A549 cells lysates grown on SILAC media at 10 uM incubated for 1 hr by LC-MS/MS analysis relative to untreated control
Data set [19] has as its target Glucocorticoid receptor (Homo sapiens) (UniProt P04150). Particulars: A549, Lysate.
Description: Binding affinity to NR3C1 in human A549 cells lysates grown on SILAC media at 10 uM incubated for 1 hr by LC-MS/MS analysis relative to untreated control
The target of data set [20] is Cytoskeleton-associated protein 4 (Homo sapiens) (UniProt Q07065). The conditions noted are these: A549, Lysate.
Description: Binding affinity to CKAP4 in human A549 cells lysates grown on SILAC media at 10 uM incubated for 1 hr by LC-MS/MS analysis relative to untreated control
Data set [21] deals with Isocitrate dehydrogenase [NADP] cytoplasmic (Homo sapiens) (UniProt O75874). The conditions noted are these: A549, Lysate.
Description: Binding affinity to IDH1 in human A549 cells lysates grown on SILAC media at 10 uM incubated for 1 hr by LC-MS/MS analysis relative to untreated control
The subject of data set [22] is SH-SY5Y. As to the kind of experiment: Induction of neurite outgrowth in human SH-SY5Y cells assessed as increase in neurite length of more than 50 micrometer by measuring cell differentiation at 1 uM in presence of mifepristone incubated for 6 days by Giemsa staining based phase contrast microscopic analysis relative to control. Format: functional.
In data set [23] the target is Mitochondrial import receptor subunit TOM40 homolog (Homo sapiens) (UniProt O96008). The conditions noted are these: A549, Lysate.
Description: Binding affinity to TOMM40 in human A549 cells lysates grown on SILAC media at 10 uM incubated for 1 hr by LC-MS/MS analysis relative to untreated control
Data set [24] addresses Aldehyde dehydrogenase 1A1 (Homo sapiens) (UniProt P00352). Particulars: A549, Lysate.
Description: Binding affinity to ALDH1A1 in human A549 cells lysates grown on SILAC media at 10 uM incubated for 1 hr by LC-MS/MS analysis relative to untreated control
For data set [25], the target named is Perilipin-3 (Homo sapiens) (UniProt O60664). Particulars: A549, Lysate.
Description: Binding affinity to PLIN3 in human A549 cells lysates grown on SILAC media at 10 uM incubated for 1 hr by LC-MS/MS analysis relative to untreated control
Data set [26] addresses Prostaglandin E synthase 2 (Homo sapiens) (UniProt Q9H7Z7). Particulars: A549, Lysate.
Description: Binding affinity to PTGES2 in human A549 cells lysates grown on SILAC media at 10 uM incubated for 1 hr by LC-MS/MS analysis relative to untreated control
In data set [27] the target is T1, 1,25-dihydroxyvitamin D(3) 24-hydroxylase, mitochondrial (Homo sapiens, UniProt Q07973).
T1 sequence (Q07973 whole entry): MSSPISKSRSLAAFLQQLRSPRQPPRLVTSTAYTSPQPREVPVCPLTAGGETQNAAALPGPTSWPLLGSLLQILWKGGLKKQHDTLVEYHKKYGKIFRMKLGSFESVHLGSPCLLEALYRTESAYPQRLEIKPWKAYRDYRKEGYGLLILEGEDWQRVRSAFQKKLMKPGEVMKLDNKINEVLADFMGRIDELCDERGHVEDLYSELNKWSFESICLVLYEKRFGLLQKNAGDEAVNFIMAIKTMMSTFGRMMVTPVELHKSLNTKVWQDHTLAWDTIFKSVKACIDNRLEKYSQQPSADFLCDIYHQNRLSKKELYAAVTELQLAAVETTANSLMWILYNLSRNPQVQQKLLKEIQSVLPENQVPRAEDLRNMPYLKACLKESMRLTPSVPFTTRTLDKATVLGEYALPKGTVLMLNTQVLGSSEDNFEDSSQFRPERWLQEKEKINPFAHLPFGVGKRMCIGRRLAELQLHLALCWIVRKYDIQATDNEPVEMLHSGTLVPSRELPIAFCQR
Briefly: Binding affinity to CYP24A1 in human A549 cells lysates grown on SILAC media at 10 uM incubated for 1 hr by LC-MS/MS analysis. Type of data set: subcellular, Lysate. Particulars: a549, 1 h.

The target in data set [28] is Reticulon-4 (Homo sapiens) (UniProt Q9NQC3). Particulars: A549, Lysate.
Description: Binding affinity to RTN4 in human A549 cells lysates grown on SILAC media at 10 uM incubated for 1 hr by LC-MS/MS analysis relative to untreated control
Data set [29] concerns the target Minor histocompatibility antigen H13 (Homo sapiens) (UniProt Q8TCT9). Particulars: A549, Lysate.
Description: Binding affinity to HM13 in human A549 cells lysates grown on SILAC media at 10 uM incubated for 1 hr by LC-MS/MS analysis relative to untreated control
In data set [30] the target is SAFB-like transcription modulator (Homo sapiens) (UniProt Q9NWH9). The conditions noted are these: A549, Lysate.
Data set [31] has as its target Heme oxygenase 2 (Homo sapiens) (UniProt P30519). Particulars: A549, Lysate.
Description: Binding affinity to HMOX2 in human A549 cells lysates grown on SILAC media at 10 uM incubated for 1 hr by LC-MS/MS analysis relative to untreated control
Data set [32] has as its target von Willebrand factor (Homo sapiens) (UniProt P04275). The conditions noted are these: A549, Lysate.
Description: Binding affinity to VWF in human A549 cells lysates grown on SILAC media at 10 uM incubated for 1 hr by LC-MS/MS analysis relative to untreated control
Data set [33] concerns the target NPC intracellular cholesterol transporter 1 (Homo sapiens) (UniProt O15118). The conditions noted are these: A549, Lysate.
Description: Binding affinity to NPC1 in human A549 cells lysates grown on SILAC media at 10 uM incubated for 1 hr by LC-MS/MS analysis relative to untreated control
Data set [34] addresses Carnitine O-palmitoyltransferase 1, liver isoform (Homo sapiens) (UniProt P50416). Particulars: A549, Lysate.
Description: Binding affinity to CPT1A in human A549 cells lysates grown on SILAC media at 10 uM incubated for 1 hr by LC-MS/MS analysis relative to untreated control
For data set [35], the target named is Mitochondrial antiviral-signaling protein (Homo sapiens) (UniProt Q7Z434). Particulars: A549, Lysate.
Description: Binding affinity to MAVS in human A549 cells lysates grown on SILAC media at 10 uM incubated for 1 hr by LC-MS/MS analysis relative to untreated control
The target in data set [36] is Histidine--tRNA ligase, cytoplasmic (Homo sapiens) (UniProt P12081). Particulars: A549, Lysate.
Description: Binding affinity to HARS in human A549 cells lysates grown on SILAC media at 10 uM incubated for 1 hr by LC-MS/MS analysis relative to untreated control
The target of data set [37] is G patch domain-containing protein 8 (Homo sapiens) (UniProt Q9UKJ3). The conditions noted are these: A549, Lysate.
Description: Binding affinity to GPATCH8 in human A549 cells lysates grown on SILAC media at 10 uM incubated for 1 hr by LC-MS/MS analysis relative to untreated control
Data set [38] has as its target Ubiquitin carboxyl-terminal hydrolase 5 (Homo sapiens) (UniProt P45974). The conditions noted are these: A549, Lysate.
Description: Binding affinity to USP5 in human A549 cells lysates grown on SILAC media at 10 uM incubated for 1 hr by LC-MS/MS analysis relative to untreated control
Data set [39] deals with Neutral cholesterol ester hydrolase 1 (Homo sapiens) (UniProt Q6PIU2). The conditions noted are these: A549, Lysate.
Description: Binding affinity to NCEH1 in human A549 cells lysates grown on SILAC media at 10 uM incubated for 1 hr by LC-MS/MS analysis relative to untreated control
The target in data set [40] is Trifunctional enzyme subunit beta, mitochondrial (Homo sapiens) (UniProt P55084). The conditions noted are these: A549, Lysate.
Description: Binding affinity to HADHB in human A549 cells lysates grown on SILAC media at 10 uM incubated for 1 hr by LC-MS/MS analysis relative to untreated control
Data set [41] deals with Antigen peptide transporter 1 (Homo sapiens) (UniProt Q03518). The conditions noted are these: A549, Lysate.
Description: Binding affinity to TAP1 in human A549 cells lysates grown on SILAC media at 10 uM incubated for 1 hr by LC-MS/MS analysis relative to untreated control
Data set [42] addresses Glutathione S-transferase omega-1 (Homo sapiens) (UniProt P78417). The conditions noted are these: A549, Lysate.
Description: Binding affinity to GSTO1 in human A549 cells lysates grown on SILAC media at 10 uM incubated for 1 hr by LC-MS/MS analysis relative to untreated control
Data set [43] concerns the target Ubiquitin carboxyl-terminal hydrolase 10 (Homo sapiens) (UniProt Q14694). Particulars: A549, Lysate.
Description: Binding affinity to USP10 in human A549 cells lysates grown on SILAC media at 10 uM incubated for 1 hr by LC-MS/MS analysis relative to untreated control
Data set [44] deals with T1, 1,25-dihydroxyvitamin D(3) 24-hydroxylase, mitochondrial. As to the kind of experiment: Binding affinity to CYP24A1 in human A549 cells lysates grown on SILAC media at 10 uM incubated for 1 hr by LC-MS/MS analysis relative to untreated control. Format: subcellular, Lysate. Particulars: a549, 1 h.

Cytoskeleton-associated protein 4 (Homo sapiens), sequence (Q07065 whole entry): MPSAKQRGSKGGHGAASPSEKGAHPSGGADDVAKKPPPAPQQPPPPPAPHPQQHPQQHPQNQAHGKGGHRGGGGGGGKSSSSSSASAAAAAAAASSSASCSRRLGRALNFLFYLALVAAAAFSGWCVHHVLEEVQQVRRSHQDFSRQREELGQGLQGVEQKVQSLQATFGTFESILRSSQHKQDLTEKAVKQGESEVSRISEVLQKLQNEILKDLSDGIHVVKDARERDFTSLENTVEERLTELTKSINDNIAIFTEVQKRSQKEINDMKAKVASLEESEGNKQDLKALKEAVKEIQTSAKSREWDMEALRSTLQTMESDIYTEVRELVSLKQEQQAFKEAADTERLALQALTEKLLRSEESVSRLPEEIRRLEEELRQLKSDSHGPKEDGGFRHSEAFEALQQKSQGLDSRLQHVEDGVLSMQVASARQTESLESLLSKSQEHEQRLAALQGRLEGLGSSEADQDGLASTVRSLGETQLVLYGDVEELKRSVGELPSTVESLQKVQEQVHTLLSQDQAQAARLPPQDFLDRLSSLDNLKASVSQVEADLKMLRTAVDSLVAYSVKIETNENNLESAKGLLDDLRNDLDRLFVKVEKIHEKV
Glucocorticoid receptor (Homo sapiens), sequence (P04150 whole entry): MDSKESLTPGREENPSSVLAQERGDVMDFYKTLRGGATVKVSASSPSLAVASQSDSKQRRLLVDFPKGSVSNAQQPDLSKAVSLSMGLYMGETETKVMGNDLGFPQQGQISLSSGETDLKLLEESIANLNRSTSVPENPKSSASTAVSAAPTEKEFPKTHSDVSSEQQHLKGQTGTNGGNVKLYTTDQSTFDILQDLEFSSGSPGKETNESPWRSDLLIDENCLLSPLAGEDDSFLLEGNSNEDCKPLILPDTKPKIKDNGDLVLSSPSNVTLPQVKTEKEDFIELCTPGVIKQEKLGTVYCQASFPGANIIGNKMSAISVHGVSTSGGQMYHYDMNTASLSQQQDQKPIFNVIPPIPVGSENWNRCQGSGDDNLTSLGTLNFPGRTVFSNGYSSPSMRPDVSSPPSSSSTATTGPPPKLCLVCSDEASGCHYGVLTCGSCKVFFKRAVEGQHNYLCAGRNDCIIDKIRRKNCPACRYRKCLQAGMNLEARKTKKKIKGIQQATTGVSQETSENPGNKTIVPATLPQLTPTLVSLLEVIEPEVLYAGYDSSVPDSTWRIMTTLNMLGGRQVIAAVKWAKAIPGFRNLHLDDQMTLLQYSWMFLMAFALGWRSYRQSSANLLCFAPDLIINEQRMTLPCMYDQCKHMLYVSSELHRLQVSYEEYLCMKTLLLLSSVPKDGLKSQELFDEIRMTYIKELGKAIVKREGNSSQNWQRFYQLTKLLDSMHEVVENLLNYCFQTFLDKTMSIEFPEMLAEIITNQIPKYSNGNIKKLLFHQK
Minor histocompatibility antigen H13 (Homo sapiens), sequence (Q8TCT9 whole entry): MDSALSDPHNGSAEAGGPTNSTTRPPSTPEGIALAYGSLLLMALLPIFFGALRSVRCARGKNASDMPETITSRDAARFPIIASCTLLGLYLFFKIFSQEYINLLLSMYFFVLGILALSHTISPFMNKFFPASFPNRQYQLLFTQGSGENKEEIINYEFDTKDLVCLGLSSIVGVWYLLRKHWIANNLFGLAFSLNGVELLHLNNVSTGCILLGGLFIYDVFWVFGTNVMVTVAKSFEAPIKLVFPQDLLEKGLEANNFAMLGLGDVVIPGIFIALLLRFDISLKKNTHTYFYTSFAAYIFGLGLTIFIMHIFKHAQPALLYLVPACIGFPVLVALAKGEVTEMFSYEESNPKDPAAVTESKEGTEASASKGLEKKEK
Non-selective voltage-gated ion channel VDAC3 (Homo sapiens), sequence (Q9Y277 whole entry): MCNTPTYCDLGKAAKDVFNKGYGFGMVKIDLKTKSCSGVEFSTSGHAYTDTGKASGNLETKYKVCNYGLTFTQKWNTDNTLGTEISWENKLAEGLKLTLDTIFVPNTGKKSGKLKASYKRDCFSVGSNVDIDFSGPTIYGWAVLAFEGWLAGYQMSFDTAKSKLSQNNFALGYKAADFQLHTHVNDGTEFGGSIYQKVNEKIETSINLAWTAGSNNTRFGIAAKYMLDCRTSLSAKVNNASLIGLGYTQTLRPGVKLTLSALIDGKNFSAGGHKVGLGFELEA
Sarcoplasmic/endoplasmic reticulum calcium ATPase 2 (Homo sapiens), sequence (P16615 whole entry): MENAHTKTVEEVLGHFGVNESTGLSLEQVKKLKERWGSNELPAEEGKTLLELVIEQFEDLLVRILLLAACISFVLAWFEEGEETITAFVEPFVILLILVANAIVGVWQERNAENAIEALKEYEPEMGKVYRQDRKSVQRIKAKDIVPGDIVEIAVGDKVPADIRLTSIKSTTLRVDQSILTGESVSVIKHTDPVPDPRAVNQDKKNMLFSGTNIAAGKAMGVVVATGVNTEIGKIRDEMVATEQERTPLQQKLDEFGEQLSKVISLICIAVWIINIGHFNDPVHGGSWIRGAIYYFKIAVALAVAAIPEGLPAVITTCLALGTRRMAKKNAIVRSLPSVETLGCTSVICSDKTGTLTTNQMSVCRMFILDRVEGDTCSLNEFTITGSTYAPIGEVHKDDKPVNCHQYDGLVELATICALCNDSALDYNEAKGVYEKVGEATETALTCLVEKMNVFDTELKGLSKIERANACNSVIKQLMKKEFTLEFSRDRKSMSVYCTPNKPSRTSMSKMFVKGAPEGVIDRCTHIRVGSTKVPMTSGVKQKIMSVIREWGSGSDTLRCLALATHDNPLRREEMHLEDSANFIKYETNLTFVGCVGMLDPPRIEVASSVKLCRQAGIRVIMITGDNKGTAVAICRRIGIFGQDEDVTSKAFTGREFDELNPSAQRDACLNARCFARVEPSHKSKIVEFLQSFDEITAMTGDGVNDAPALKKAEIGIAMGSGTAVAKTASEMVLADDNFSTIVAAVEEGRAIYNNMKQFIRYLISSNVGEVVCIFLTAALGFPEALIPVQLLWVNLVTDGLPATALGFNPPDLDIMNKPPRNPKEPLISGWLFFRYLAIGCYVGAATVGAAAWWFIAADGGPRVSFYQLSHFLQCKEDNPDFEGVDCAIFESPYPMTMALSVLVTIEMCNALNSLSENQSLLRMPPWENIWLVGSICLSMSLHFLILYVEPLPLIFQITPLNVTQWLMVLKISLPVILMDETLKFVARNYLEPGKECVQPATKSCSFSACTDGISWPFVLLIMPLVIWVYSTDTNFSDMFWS
Non-selective voltage-gated ion channel VDAC2 (Homo sapiens), sequence (P45880 whole entry): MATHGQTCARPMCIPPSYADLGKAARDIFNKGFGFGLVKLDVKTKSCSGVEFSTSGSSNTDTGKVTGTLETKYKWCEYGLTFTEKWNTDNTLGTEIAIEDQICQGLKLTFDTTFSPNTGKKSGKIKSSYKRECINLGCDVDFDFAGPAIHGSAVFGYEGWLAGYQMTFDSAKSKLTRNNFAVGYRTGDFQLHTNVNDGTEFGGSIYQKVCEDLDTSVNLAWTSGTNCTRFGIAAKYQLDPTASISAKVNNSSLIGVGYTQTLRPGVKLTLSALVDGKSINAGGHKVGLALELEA
Cytochrome b5 type B (Homo sapiens), sequence (O43169 whole entry): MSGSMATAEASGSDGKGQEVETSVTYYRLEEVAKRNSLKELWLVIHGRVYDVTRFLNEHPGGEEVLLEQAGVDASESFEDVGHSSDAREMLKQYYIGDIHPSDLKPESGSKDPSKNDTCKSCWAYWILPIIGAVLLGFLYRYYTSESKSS
Reticulon-4 (Homo sapiens), sequence (Q9NQC3 whole entry): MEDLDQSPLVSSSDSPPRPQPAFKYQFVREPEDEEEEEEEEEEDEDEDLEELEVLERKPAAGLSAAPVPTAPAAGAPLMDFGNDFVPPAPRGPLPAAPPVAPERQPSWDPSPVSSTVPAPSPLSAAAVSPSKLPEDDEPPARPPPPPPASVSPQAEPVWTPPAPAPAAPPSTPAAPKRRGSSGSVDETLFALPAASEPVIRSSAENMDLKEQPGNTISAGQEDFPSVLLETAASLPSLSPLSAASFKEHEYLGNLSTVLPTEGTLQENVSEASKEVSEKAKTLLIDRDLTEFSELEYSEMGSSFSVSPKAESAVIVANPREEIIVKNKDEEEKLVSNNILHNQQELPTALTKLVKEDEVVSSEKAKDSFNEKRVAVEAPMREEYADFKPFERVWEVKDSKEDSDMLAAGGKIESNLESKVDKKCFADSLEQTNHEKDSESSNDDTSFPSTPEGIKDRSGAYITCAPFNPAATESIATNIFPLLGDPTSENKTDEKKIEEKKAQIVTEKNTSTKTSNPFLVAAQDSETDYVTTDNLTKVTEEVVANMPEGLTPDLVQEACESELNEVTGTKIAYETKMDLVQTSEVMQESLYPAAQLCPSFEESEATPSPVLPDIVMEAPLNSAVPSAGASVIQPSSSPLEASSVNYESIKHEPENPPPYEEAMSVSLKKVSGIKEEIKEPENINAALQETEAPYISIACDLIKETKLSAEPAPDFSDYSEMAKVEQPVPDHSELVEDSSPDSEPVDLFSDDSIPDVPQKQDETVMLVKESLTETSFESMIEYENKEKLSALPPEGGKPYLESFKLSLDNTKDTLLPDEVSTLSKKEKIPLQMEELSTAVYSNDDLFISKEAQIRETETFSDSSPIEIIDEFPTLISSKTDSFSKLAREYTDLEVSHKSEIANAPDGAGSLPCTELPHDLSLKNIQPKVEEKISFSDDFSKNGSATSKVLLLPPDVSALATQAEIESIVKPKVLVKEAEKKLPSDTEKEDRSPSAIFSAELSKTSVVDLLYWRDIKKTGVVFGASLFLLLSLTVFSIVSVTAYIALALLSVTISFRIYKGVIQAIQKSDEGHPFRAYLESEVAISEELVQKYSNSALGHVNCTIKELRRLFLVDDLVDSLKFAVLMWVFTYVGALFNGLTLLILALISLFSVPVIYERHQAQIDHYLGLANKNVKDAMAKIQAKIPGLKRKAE
Mitochondrial carrier homolog 2 (Homo sapiens), sequence (Q9Y6C9 whole entry): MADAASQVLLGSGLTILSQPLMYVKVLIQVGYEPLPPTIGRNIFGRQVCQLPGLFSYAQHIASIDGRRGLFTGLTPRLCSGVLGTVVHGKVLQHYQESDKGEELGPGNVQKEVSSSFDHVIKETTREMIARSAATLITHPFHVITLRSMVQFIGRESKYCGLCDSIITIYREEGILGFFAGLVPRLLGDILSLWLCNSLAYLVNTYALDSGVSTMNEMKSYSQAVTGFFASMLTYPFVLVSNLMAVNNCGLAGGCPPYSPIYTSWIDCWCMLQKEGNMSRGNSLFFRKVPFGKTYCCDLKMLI

With `C#CCO/N=C1/CC[C@]2(C)[C@H]3CC[C@]4(C)[C@@H]([C@@](C)(O)[C@H]5CC(C)=C(C)C(=O)O5)CC[C@H]4[C@@H]3[C@@H]3O[C@@H]3[C@@]2(O)C1`, the Activity in the data set on SH-SY5Y [1] turned out to be 50%.
On the same count and under the same terms, the value for `C#CCO/N=C1\CCC[C@]2(O)[C@H]3O[C@H]3[C@H]3[C@@H]4CC[C@H]([C@@](C)(O)[C@H]5CC(C)=C(C)C(=O)O5)[C@@]4(C)CC[C@@H]3[C@@]12C` was 48%.
Turning to `C#CCOC(=O)/C(C)=C(C)\C=C\[C@](C)(O)[C@H]1CC[C@H]2[C@@H]3[C@@H]4O[C@@H]4C4=CC=CC(=O)[C@]4(C)[C@H]3CC[C@@]21C`, the log2FC was 1.74 in data set [2]; 1.02 in [3]; 1.28 in [4]; 2.14 in data set [5]; 2.81 in data set [6]; 4.61 in data set [7]. The log2FC in data set [8] was determined as 1.47; in [9], 1.88; in data set [10], 4.85; in [11] it was 3.66; in data set [12], 3.04; in data set [13], 1.89. For the same molecule, the log2FC came to 2.96 in data set [14]; 2.45 in [15]; 2.11 in data set [16]; 4.38 in data set [18]; 2.03 in data set [19]; 1.79 in [20]. Further, the log2FC turned out to be 2.46 in [21], 2.05 in data set [23] and 1.25 in data set [24]. Also, the Activity in the data set with SH-SY5Y [1] is given as 41%; in the data set with SH-SY5Y [17], 40%; with SH-SY5Y [22], 44%.
On to `CC#C[C@]1(O)CC[C@H]2[C@@H]3CCC4=CC(=O)CCC4=C3[C@@H](c3ccc(N(C)C)cc3)C[C@@]21C` [MIFEPRISTONE], for which, in the data set with SH-SY5Y [1], the Activity is reported as 50%.
Still for that read-out and setting: the value for `CC1=C(/C=C/C(C)=C/C=C/C(C)=C/C(=O)O)C(C)(C)CCC1` [TRETINOIN] was 45%.
On to `CC1=C(C)C(=O)O[C@@H]([C@](C)(O)[C@H]2CC[C@H]3[C@@H]4[C@@H]5O[C@@H]5[C@@]5(O)CC=CC(=O)[C@]5(C)[C@H]4CC[C@]23C)C1` [WITHANOLIDE A], for which the Activity is on record as 46% in the data set with SH-SY5Y [1], 46% in the data set on SH-SY5Y [17] and 47% in the data set on SH-SY5Y [22].
Regarding `C#CCO/N=C1\C=CC[C@]2(O)[C@H]3O[C@H]3[C@H]3[C@@H]4CC[C@H]([C@@](C)(O)[C@H]5CC(C)=C(C)C(=O)O5)[C@@]4(C)CC[C@@H]3[C@@]12C`, the log2FC in [25] is 0.964; in data set [7], 7.33; in data set [26], 1.16; in data set [28], 3.73; in data set [29] it was 2.25; in data set [30], 2.27. Further, the Activity is 58% with SH-SY5Y [1], 37% in the data set with SH-SY5Y [17], “Active” in data set [27] and 33% with SH-SY5Y [22].
As for `C#CCOC(=O)/C(C)=C(C)\C=C\[C@](C)(O)[C@H]1CC[C@H]2[C@@H]3[C@@H]4O[C@@H]4[C@@]4(O)CC=CC(=O)[C@]4(C)[C@H]3CC[C@@]21C`, the log2FC in data set [31] was 7.1; in data set [32], 1.63; in data set [10], 3.3; in data set [33], 2.08; in data set [26], 4.11; in data set [34] it was 1.41. The log2FC turned out to be 1.62 in data set [35]; 1.86 in [36]; 2.25 in data set [37]; 1.08 in data set [38]; 1.18 in data set [14]; 1.38 in [16]. In addition, the log2FC in [39] was determined as 1.16; in data set [40], 3.09; in data set [18] it was 3.01; in [19] it was 1.96; in data set [41] it was 2.34; in [42], 3.99. In addition, the log2FC came out at 2.99 in [20]; 1.27 in [43]; 2.16 in data set [23]; 1.875 in data set [44]; 8.71 in data set [28]; 3.52 in data set [29]. Further, the Activity with SH-SY5Y [1] is 40%; with SH-SY5Y [17], 38%; in [27], “Active”; in the data set with SH-SY5Y [22], 40%.
With `C#CCO/N=C1/C=C[C@]2(C)[C@H]3CC[C@]4(C)[C@@H]([C@@](C)(O)[C@H]5CC(C)=C(C)C(=O)O5)CC[C@H]4[C@@H]3[C@@H]3O[C@@H]3[C@@]2(O)C1`, the Activity in the data set on SH-SY5Y [1] was 55%.
For `C[C@@H]1C[C@H]2[C@@H]3CCC4=CC(=O)C=C[C@]4(C)[C@@]3(F)[C@@H](O)C[C@]2(C)[C@@]1(O)C(=O)CO` [DEXAMETHASONE], the Activity with SH-SY5Y [1] turned out to be 16%.

The record behind these values is ChEMBL document CHEMBL4340528, “Profiling withanolide A for therapeutic targets in neurodegenerative diseases” (Bioorg Med Chem, 2019).
